According to ChEMBL document CHEMBL1132846, “Synthesis and biological evaluation of highly potent analogues of epothilones B and D” (Bioorg Med Chem Lett, 2000):

Assays:
Sus scrofa [1] = species: Sus scrofa; assay: Induction of polymerization of porcine brain-derived microtubule protein by 2 uM epothilone B; type: functional
Sus scrofa [2] = species: Sus scrofa; assay: Concentrations required to induce 50 percent polymerization of porcine brain-derived micro-tubule protein; type: functional
KB = assay: Concentration required to inhibit the growth of paclitaxel-resistant human epidermoid carcinoma cells KB-8511 by 50 percent (72 hr exposure); type: functional, cell-based
KB 3-1 = assay: Concentration required to inhibit the growth of paclitaxel-sensitive human epidermoid carcinoma cells KB-31 by 50 percent (72 hr exposure); type: functional, cell-based; conditions: KB 3-1, 72 h

SMILES | Tubulin polymerization (Sus scrofa [1]) [%] | EC50 (Sus scrofa [2]) [nM] | IC50 (KB) [nM] | IC50 (KB 3-1) [nM]
C/C1=C/C[C@@H](/C(C)=C/c2csc(C)n2)OC(=O)C[C@H](O)C(C)(C)C(=O)[C@H](C)[C@@H](O)[C@@H](C)CCC1 [EPOTHILONE D] | 83 | 880 | 1.44 | 2.7
Cc1nc2cc([C@@H]3C[C@@H]4O[C@]4(C)CCC[C@H](C)[C@H](O)[C@@H](C)C(=O)C(C)(C)[C@@H](O)CC(=O)O3)ccc2s1 | 83 | – | 0.09 | 0.13
C[C@H]1CCC[C@@]2(C)O[C@H]2C[C@@H](c2ccc3c(c2)ncn3C)OC(=O)C[C@H](O)C(C)(C)C(=O)[C@H](C)[C@H]1O | 97 | – | 0.46 | 0.13
C/C1=C/C[C@@H](c2ccc3sc(C)nc3c2)OC(=O)C[C@H](O)C(C)(C)C(=O)[C@H](C)[C@@H](O)[C@@H](C)CCC1 | 76 | 930 | 0.23 | 0.45
C/C1=C/C[C@@H](c2ccc3c(c2)ncn3C)OC(=O)C[C@H](O)C(C)(C)C(=O)[C@H](C)[C@@H](O)[C@@H](C)CCC1 | 86 | – | 0.91 | 0.46
C/C(=C\c1ccccn1)[C@@H]1C[C@@H]2O[C@]2(C)CCC[C@H](C)[C@H](O)[C@@H](C)C(=O)C(C)(C)[C@@H](O)CC(=O)O1 | – | – | 0.3 | 0.3
C/C(=C\c1csc(C)n1)[C@@H]1C[C@@H]2O[C@]2(C)CCC[C@H](C)[C@H](O)[C@@H](C)C(=O)C(C)(C)[C@@H](O)CC(=O)O1 [PATUPILONE] | 90 | 670 | 0.18 | 0.19
Cc1nc2cc([C@@H]3C[C@@H]4O[C@]4(C)CCC[C@H](C)[C@H](O)[C@@H](C)C(=O)C(C)(C)[C@@H](O)CC(=O)O3)ccc2n1C | 99 | – | 0.38 | 0.14
CC(=O)O[C@H]1C(=O)[C@@]2(C)[C@H]([C@H](OC(=O)c3ccccc3)[C@]3(O)C[C@H](OC(=O)[C@H](O)[C@@H](NC(=O)c4ccccc4)c4ccccc4)C(C)=C1C3(C)C)[C@]1(OC(C)=O)CO[C@@H]1C[C@@H]2O [PACLITAXEL] | 49 | – | 626 | 2.92
C/C1=C/C[C@@H](c2ccc3c(c2)nc(C)n3C)OC(=O)C[C@H](O)C(C)(C)C(=O)[C@H](C)[C@@H](O)[C@@H](C)CCC1 | 94 | – | 0.73 | 0.21
C/C(=C\c1csc(C)n1)[C@@H]1C[C@@H]2O[C@@H]2CCC[C@H](C)[C@H](O)[C@@H](C)C(=O)C(C)(C)[C@@H](O)CC(=O)O1 [EPOTHILONE A] | 69 | 1120 | 1.91 | 2.15
C/C1=C/C[C@@H](c2ccc3cccnc3c2)OC(=O)C[C@H](O)C(C)(C)C(=O)[C@H](C)[C@@H](O)[C@@H](C)CCC1 | 90 | – | 0.38 | 0.59
C[C@H]1CCC[C@@]2(C)O[C@H]2C[C@@H](c2ccc3cccnc3c2)OC(=O)C[C@H](O)C(C)(C)C(=O)[C@H](C)[C@H]1O | 78 | – | 0.1 | 0.11
